# Test results published in US20040175352A1, “Microbicidal compositions including an ionene polymer and 2,4,4-trichloro-2-hydroxydiphenyl ether, and methods of using the same” (priority 2003, published 2004).
# Values joined by “and” are separate entries in the source; they are usually repeats but may differ in a detail not shown here. Equal values may be shown once.
# What was measured:
# Format in all cases: cell-based
# [1] = system: Trichoderma viride; test: Fungal evaluation, Trichoderma viride growth prevention (end point, Kull synergism); details: lowest concentration completely preventing growth for seven days, mineral salts-glucose medium pH 6, 25° C.
# Procedure: Mineral salts-glucose medium was used. To prepare the medium, the following ingredients were added to 1 liter of deionized water: 0.7 g of KH2PO4; 0.7 g of MgSO4.7H2O; 1.0 g of HN4NO3; 0.005 g of NaCl; 0.002 g of FeSO4.7H20; 0.002 g ZnSO4.7H2O; 0.001 g of MnSO4.7H2O; 10 g of Glucose. The pH of the medium was adjusted to 6 with 1N NaOH. The medium was distributed in 5 ml amounts in test tubes and autoclaved at 121° C. for 20 minutes. The fungus, Trichoderma viride or Aspergillus niger, was grown on potato dextrose agar slant for 5 to 10 days and a spore suspension prepared by washing down the spores from the slant into a sterile saline solution. After addition of the biocides in the desired concentrations in the sterile mineral salts-glucose medium, the fungal spore suspension was added. The final spore concentration was approximately 10^6 cfu/ml. The inoculated media was incubated at 25° C. for 7 days.
# (Busan® 77), poly[hydroxyethylene-(dimethyliminio)-2-hydroxypropylene(dimethyliminio)methylene dichloride] […]
# [2] = system: Pseudomonas aeruginosa; test: Bacterial evaluation, Pseudomonas aeruginosa growth prevention (end point, Kull synergism)
# Procedure: (§1) Nutrient broth (2.5 g/liter of deionized water) was prepared. This was distributed in 5 ml amounts in test tubes and autoclaved at 121° C. for 20 minutes. After addition of the biocides in the desired concentrations to the nutrient broth, 100 microliters of a 24-hour grown suspension of Pseudomonas aeruginosa or Klebsiella pneumoniae cells of approximately 9.3×10^8 cfu/ml were added and incubated at 30° C. for 24 or 48 hours.
# (§2) (Busan® 77), poly[hydroxyethylene-(dimethyliminio)-2-hydroxypropylene(dimethyliminio)methylene dichloride] (Busan® 1055 or APCA), or a cross-linked terpolymer of dimethylamine, epichlorohydrin and ethylenediamine (Busan® 1157), (designated component A), and triclosan (designated component B) in a series of tests in varying ratios and a range of concentrations against the fungi Trichoderma viride, and Aspergillus niger, the bacteria Pseudomonas aeruginosa and Klebsiella pneumoniae, and the alga Chlorella sp. using the methods described above.
# (§3) End points for the various mixtures were then compared with the end points for the pure active ingredients alone in concomitantly prepared flasks or test tubes.
# (§4) Qa=Concentration of compound A in parts per million, acting alone, which produced an end point.
# (§5) Qb=Concentration of compound B in parts per million, acting alone, which produced an end point. […]
# [3] = system: Klebsiella pneumoniae; test: Bacterial evaluation, Klebsiella pneumoniae growth prevention (end point, Kull synergism); details: lowest concentration completely preventing growth for 24 or 48 hours, nutrient broth, 30° C.
# Procedure: as §1, §2, §3, §4, §5
# [4] = system: Chlorella sp.; test: Algal evaluation, Chlorella sp. growth prevention (end point, Kull synergism); details: lowest concentration completely preventing growth for three or four weeks, modified Allen's medium pH 7.8, 25° C., 180 ft-candle
# Procedure: The medium used for testing the effectiveness of the invention against algae was modified Allen's medium (see Allen, A. A., Simple conditions for growth of unicellular blue-green algae on plates, JOURNAL OF PHYCOLOGY. 4:1-4 […]). To make modified Allen's medium, the following six individual stock solutions in g/200 ml of deionized water were first prepared: 1.50 g of K2HPO4; 1.50 g of MgSO4.7H20; 0.80 g Na2CO3; 0.5 g CaCl2.2H2O; 1.16 g Na2SiO3.9H2O; 1.20 g citric acid. A micronutrient stock solution was also prepared by adding the following ingredients to 1 liter of deionized water: 0.75 g of Na2EDTA; 0.097 g FeCl3.6H2O; 0.041 g of MnCl2.4H2O; 0.005 g ZnCl2; 0.002 g CoCl2.6H2O; 0.004 g Na2MoO4.2H2O. To make the final modified Allen's medium, the following ingredients and the stock solutions, prepared from above, were combined in a flask and then made up to 1 liter with deionized water: 1.5 g NaNO3; 5 ml K2HPO4; 5 ml MgSO4.7H2O; 5 ml Na2CO3; 10 ml CaCl2.2H2O; 10 ml Na2SiO3.9H2O; 1 ml citric acid; and 1 ml micronutrient stock solution. The pH was adjusted to 7.8. Then the medium was dispensed in 5 ml amounts in test tubes and autoclaved at 121° C. for 20 minutes. After autoclaving, the biocides were added to the medium in the desired concentrations. […]
smiles,measurement,setting,value
"Oc1cc(Cl)ccc1Oc1ccc(Cl)cc1Cl [Triclosan, 2,4,4′-tricloro-2′-hydroxydiphenyl ether]","Ob, quantity producing end point: concentration of component B (triclosan) acting alone",[1],25 ppm
same,"Ob, quantity producing end point: concentration of component B (triclosan) acting alone","[2]; Pseudomonas aeruginosa, lowest concentration completely preventing growth for 24 or 48 hours, nutrient broth, 30° C.",>500 ppm
same,effectiveness against Pseudomonas sp. when used individually,"[2]; Pseudomonas sp., component used individually",ineffective
same,"Ob, quantity producing end point: concentration of component B (triclosan) acting alone",[3],0.5 ppm
same,"Ob, quantity producing end point: concentration of component B (triclosan) acting alone",[4],0.5 ppm and 0.6 ppm
